Patent US20040142981A1, “Antibacterial benzoic acid derivatives” (priority 2002, published 2004)
In brackets after ≈: the same amount, converted by molar mass.

Columns and labels:
[1] = test system: SAUR 9218; test: MIC by standard agar dilution method; type: cell-based; conditions: Mueller Hinton agar, incubated overnight at 35° C., lowest concentration that inhibits visible growth
Method: MIC Test Method The in vitro MICs of test compounds were determined by a standard agar dilution method. A stock drug solution of each analog was prepared in the preferred solvent, usually DMSO:H2O (1:3). Serial 2-fold dilutions of each sample are made using 1.0 ml aliquots of sterile distilled water. To each 1.0 ml aliquot of drug was added 9 ml of molten Mueller Hinton agar medium. The drug-supplemented agar was mixed, poured into 15×100 mm petri dishes, and allowed to solidify and dry prior to inoculation. Vials of each of the test organisms are maintained frozen in the vapor phase of a liquid nitrogen freezer. Test cultures are grown overnight at 35° C. on the medium appropriate for the organism. Colonies are harvested with a sterile swab, and cell suspensions are prepared in Trypticase Soy broth (TSB) to equal the turbidity of a 0.5 McFarland standard. A 1:20 dilution of each suspension was made in TSB. The plates containing the drug supplemented agar are inoculated with a 0.001 ml drop of the cell suspension using a Steers replicator, yielding approximately 10^4 to 10^5 cells per spot. The plates are incubated overnight at 35° C. Following incubation the Minimum Inhibitory Concentration (MIC μg/ml), the lowest concentration of drug that inhibits visible growth of the organism, was read and recorded.

SMILES	MIC [1] [µg/mL]	melting point [°C]
CN(c1ccc(Cl)cc1)S(=O)(=O)c1ccc(C(=O)Nc2ccc(Br)cc2NS(=O)(=O)C(F)(F)F)cc1	32 (≈ 51 µM)	–
O=C(Nc1ccc(Br)cc1-c1noc(=O)[nH]1)c1cccc(S(=O)(=O)N2CCc3cc(Cl)ccc32)c1 [Example 1, N-[4-Bromo-2-(5-oxo-4,5-dihydro-1,2,4-oxadiazol-3-yl)phenyl]-3-[(5-chloro-2,3-dihydro-1H-indol-1-yl)sulfonyl]benzamide]	4 (≈ 6.95 µM)	–
O=C(Nc1ccc(Br)cc1-c1noc(=O)[nH]1)c1cccc(SCc2ccccc2)c1 [Example 2, 3-(Benzylthio)-N-[4-bromo-2-(5-oxo-4,5-dihydro-1,2,4-oxadiazol-3-yl)phenyl]benzamide]	8 (≈ 16.6 µM)	–
CN(c1ccc(Cl)cc1)S(=O)(=O)c1cccc(C(=O)Nc2ccc(Br)cc2C(=O)NS(C)(=O)=O)c1 [Example 3, N-(4-Bromo-2-{[(methylsulfonyl)amino]carbonyl}phenyl)-3-{[(4-chlorophenyl)(methyl)amino]sulfonyl}benzamide]	2 (≈ 3.33 µM)	–
Cc1ccc(S(=O)(=O)NC(=O)c2cc(Br)ccc2NC(=O)c2cccc(S(=O)(=O)N(C)c3ccc(Cl)cc3)c2)cc1 [Example 4, N-[4-Bromo-2-({[(4-methylphenyl)sulfonyl]amino}carbonyl)phenyl]-3-{[(4-chlorophenyl)(methyl)amino]sulfonyl}benzamide]	8 (≈ 11.8 µM)	–
CN(c1ccc(Cl)cc1)S(=O)(=O)c1ccc(C(=O)Nc2ccc(Br)cc2-c2nnn[nH]2)cc1 [Example 5, N-[4-Bromo-2-(1H-tetraazol-5-yl)phenyl]-4-{[(4-chlorophenyl)(methyl)amino]sulfonyl}benzamide]	16 (≈ 29.2 µM)	–
CN(c1ccc(Cl)cc1)S(=O)(=O)c1ccc(C(=O)Nc2ccc(Br)cc2-c2noc(=O)[nH]2)cc1 [Example 6, N-[4-Bromo-2-(5-oxo-4,5-dihydro-1,2,4-oxadiazol-3-yl)phenyl]-4-{[(4-chlorophenyl)(methyl)amino]sulfonyl}benzamide]	16 (≈ 28.4 µM)	–
O=C(Nc1ccc(Br)cc1-c1noc(=O)[nH]1)c1ccc(S(=O)(=O)N2CCc3ccccc32)cc1 [Example 7, N-[4-Bromo-2-(5-oxo-4,5-dihydro-1,2,4-oxadiazol-3-yl)phenyl]-4-(2,3-dihydro-1H-indol-1-ylsulfonyl)benzamide]	16 (≈ 29.6 µM)	–
CN(c1ccc(Cl)cc1)S(=O)(=O)c1ccc(C(=O)Nc2ccc(Br)cc2-c2n[nH]c(=S)o2)cc1 [Example 8, N-[4-Bromo-2-(5-thioxo-4,5-dihydro-1,3,4-oxadiazol-2-yl)phenyl]-4-{[(4-chlorophenyl)(methyl)amino]sulfonyl}benzamide]	4 (≈ 6.9 µM)	–
CN(c1ccc(Cl)cc1)S(=O)(=O)c1cccc(C(=O)Nc2ccc(Br)cc2-c2noc(=O)[nH]2)c1 [Example 9, N-[4-Bromo-2-(5-oxo-4,5-dihydro-1,2,4-oxadiazol-3-yl)phenyl]-3-{[(4-chlorophenyl)(methyl)amino]sulfonyl}benzamide]	16 (≈ 28.4 µM)	–
O=C(Nc1ccc(Br)cc1-c1noc(=O)[nH]1)c1cccc(OCc2ccccc2)c1 [Example 10, 3-(Benzyloxy)-N-[4-bromo-2-(5-oxo-4,5-dihydro-1,2,4-oxadiazol-3-yl)phenyl]benzamide]	8 (≈ 17.2 µM)	–
O=C(Nc1ccc(Br)cc1C1=Nc2ccccc2S(=O)(=O)N1)c1cccc(S(=O)(=O)N2CCOCC2)c1 [Example 11, N-[4-Bromo-2-(1,1-dioxido-2H-1,2,4-benzothiadiazin-3-yl)phenyl]-3-(morpholin-4-ylsulfonyl)benzamide]	16 (≈ 26.4 µM)	–
O=C(Nc1ccc(Br)cc1-c1nc2ccccc2c(=O)[nH]1)c1cccc(S(=O)(=O)N2CCc3cc(Cl)ccc32)c1 [Example 12, N-[4-Bromo-2-(4-oxo-3,4-dihydroquinazolin-2-yl)phenyl]-3-[(5-chloro-2,3-dihydro-1H-indol-1-yl)sulfonyl]benzamide]	4 (≈ 6.29 µM)	–
O=C(Nc1ccc(Br)cc1-c1nc2ccccc2c(=O)[nH]1)c1cccc(S(=O)(=O)N2CCOCC2)c1 [Example 13, N-[4-Bromo-2-(4-oxo-3,4-dihydroquinazolin-2-yl)phenyl]-3-(morpholin-4-ylsulfonyl)benzamide]	4 (≈ 7.02 µM)	–
O=C(Nc1ccc(Br)cc1C1=Nc2ccccc2S(=O)(=O)N1)c1cccc(S(=O)(=O)N2CCc3cc(Cl)ccc32)c1 [Example 14, N-[4-Bromo-2-(1,1-dioxido-2H-1,2,4-benzothiadiazin-3-yl)phenyl]-3-[(5-chloro-2,3-dihydro-1H-indol-1-yl)sulfonyl]benzamide]	64 (≈ 95.2 µM)	–
CC(C)Oc1cccc(C(=O)Nc2ccc(Br)cc2-c2noc(=O)[nH]2)c1 [Example 15, N-[4-Bromo-2-(5-oxo-4,5-dihydro-1,2,4-oxadiazol-3-yl)phenyl]-3-isopropoxybenzamide]	32 (≈ 76.5 µM)	–
O=C(Nc1ccc(Br)cc1-c1noc(=O)[nH]1)c1cccc(Oc2ccccc2)c1 [Example 16, N-[4-Bromo-2-(5-oxo-4,5-dihydro-1,2,4-oxadiazol-3-yl)phenyl]-3-phenoxybenzamide]	16 (≈ 35.4 µM)	185 to 187

SMILES	MIC [1] [µg/mL]	melting point [°C]
O=C(Nc1ccc(Br)cc1-c1nnn[nH]1)c1cccc(S(=O)(=O)N2CCOCC2)c1 [Example 17, N-[4-bromo-2-(1H-tetraazol-5-yl)phenyl]-3-(morpholin-4-ylsulfonyl)benzamide]	64 (≈ 130 µM)	228 to 230
N#Cc1ccc(NC(=O)c2cccc(S(=O)(=O)N3CCOCC3)c2)c(-c2n[nH]c(=O)o2)c1 [Example 18, N-[4-cyano-2-(5-oxo-4,5-dihydro-1,3,4-oxadiazol-2-yl)phenyl]-3-(morpholin-4-ylsulfonyl)benzamide]	> 128	283 to 285
O=C(Nc1ccc(Br)cc1-c1noc(=O)[nH]1)c1cccc(S(=O)(=O)N2CCOCC2)c1 [Example 19, N-[4-bromo-2-(5-oxo-4,5-dihydro-1,2,4-oxadiazol-3-yl)phenyl]-3-(morpholin-4-ylsulfonyl)benzamide]	128 (≈ 251 µM)	220 to 223
O=C(Nc1ccc(I)cc1-c1nnn[nH]1)c1cc2cccc(S(=O)(=O)c3ccccc3)c2[nH]1 [Example 24, N-[4-iodo-2-(1H-tetraazol-5-yl)phenyl]-7-(phenylsulfonyl)-1H-indole-2-carboxamide]	0.5 (≈ 0.877 µM)	–
N#Cc1ccc(NC(=O)c2cccc(S(=O)(=O)N3CCc4cc(Cl)ccc43)c2)c(C(=O)Nc2nccs2)c1 [Example 26, 2-({3-[(5-Chloro-2,3-dihydro-1H-indol-1-yl)sulfonyl]benzoyl}amino)-5-cyano-N-(1,3-thiazol-2-yl)benzamide]	8 (≈ 14.2 µM)	–
CN(c1ccc(Cl)cc1)S(=O)(=O)c1coc(C(=O)Nc2ccc(Br)cc2-c2nnn[nH]2)c1 [Example 27]	16 (≈ 29.8 µM)	–
CN(c1ccc(Cl)cc1)S(=O)(=O)c1csc(C(=O)Nc2ccc(Br)cc2-c2nnn[nH]2)c1 [Example 28, N-[4-Bromo-2-(1H-tetraazol-5-yl)phenyl]-4-{[(4-chlorophenyl)(methyl)amino]sulfonyl}thiophene-2-carboxamide]	16 (≈ 28.9 µM)	–
CN(c1ccc(Cl)cc1)S(=O)(=O)c1ccc(C(=O)Nc2ccc(Br)cc2-c2nnn[nH]2)s1 [Example 29, N-[4-Bromo-2-(1H-tetraazol-5-yl)phenyl]-5-{[(4-chlorophenyl)(methyl)amino]sulfonyl}thiophene-2-carboxamide]	8 (≈ 14.4 µM)	–
CC(C)Sc1ccc(C(=O)Nc2ccc(Br)cc2-c2noc(=O)[nH]2)cn1 [Example 31, N-[4-bromo-2-(5-oxo-4,5-dihydro-1,2,4-oxadiazol-3-yl)phenyl]-6-(isopropylthio)nicotinamide]	8 (≈ 18.4 µM)	–
O=C(Nc1ccc(Br)cc1-c1nnn[nH]1)c1ccc(S(=O)(=O)N2CCc3ccccc32)cc1 [N-[4-bromo-2-(1H-1,2,3,4-tetraazol-5-yl)phenyl]-4-(2,3-dihydro-1H-indol-1-ylsulfonyl)benzamide]	2 (≈ 3.81 µM)	–
O=C(Nc1ccc(Br)cc1-c1nnn[nH]1)c1ccc(S(=O)(=O)N2CCc3cc(Cl)ccc32)cc1 [N-[4-bromo-2-(1H-1,2,3,4-tetraazol-5-yl)phenyl]-4-[(5-chloro-2,3-dihydro-1H-indol-1-yl)sulfonyl]benzamide]	4 (≈ 7.14 µM)	–
COc1cccc(C(=O)Nc2ccc(Br)cc2-c2nnn[nH]2)c1 [N-[4-bromo-2-(1H-tetraazol-5-yl)phenyl]-3-methoxybenzamide]	64 (≈ 171 µM)	–
O=C(Nc1ccc(Br)cc1-c1noc(=O)[nH]1)c1ccc(S(=O)(=O)N2CCc3cc(Cl)ccc32)cc1 [N-[4-bromo-2-(5-oxo-4,5-dihydro-1,2,4-oxadiazol-3-yl)phenyl]-4-[(5-chloro-2,3-dihydro-1H-indol-1-yl)sulfonyl]benzamide]	8 (≈ 13.9 µM)	–
O=C(Nc1ccc(Br)cc1-c1n[nH]c(=O)o1)c1ccc(S(=O)(=O)N2CCc3cc(Cl)ccc32)cc1 [N-[4-bromo-2-(5-oxo-4,5-dihydro-1,3,4-oxadiazol-2-yl)phenyl]-4-[(5-chloro-2,3-dihydro-1H-indol-1-yl)sulfonyl]benzamide]	> 128	–
CN(c1ccc(Cl)cc1)S(=O)(=O)c1ccc(C(=O)Nc2ccc(Br)cc2-c2n[nH]c(=O)o2)cc1 [N-[4-bromo-2-(5-oxo-4,5-dihydro-1,3,4-oxadiazol-2-yl)phenyl]-4-{[4-chloro(methyl)anilino]sulfonyl}benzamide]	2 (≈ 3.55 µM)	–
CN(c1ccc(Cl)cc1)S(=O)(=O)c1ccc(C(=O)Nc2ccc(Br)cc2-c2noc(=S)[nH]2)cc1 [N-[4-bromo-2-(5-thioxo-4,5-dihydro-1,2,4-oxadiazol-3-yl)phenyl]-4-{[4-chloro(methyl)anilino]sulfonyl}benzamide]	16 (≈ 27.6 µM)	–
